Source: EP4603105A1, “PHARMACEUTICAL COMPOSITION CONTAINING CYCLIC COMPOUND HAVING SELECTIVE KRAS INHIBITORY EFFECT AGAINST HRAS AND NRAS” (CHUGAI SEIYAKU KABUSHIKI KAISHA, priority 2022, dated 2024)
Read-outs that look alike come from different tables or passages of the source. *1 amine or outer side, *2 acyl side, *3 side chain or, on linkers, in order; H or OH if unused. Where a SMILES comes first, the peptide text is derived from it. Bridges are numbered along the chain shown (N, C = ends). [ ]: non-standard residue; d: D form. The star is where a group is joined. hPhe(3,5-F2-4-CF3) = N[C@@H](CCc1cc(F)c(C(F)(F)F)c(F)c1)C(=O)O; hPhe(3-Cl-4-CF3) = N[C@@H](CCc1ccc(C(F)(F)F)c(Cl)c1)C(=O)O; NPrPhe(4-CF3) = CCCN[C@@H](Cc1ccc(C(F)(F)F)cc1)C(=O)O; X27 = COCCCN([C@@H](Cc1ccc(C)cc1)C(=O)[*:2])[*:1]; X36 = CN([C@@H](CCCC=[*:3])C(=O)[*:2])[*:1]; dαMeAlg = C[C@](CC=[*:3])(N[*:1])C(=O)[*:2]; Abu(4,4,4-F3) = N[C@@H](CC(F)(F)F)C(=O)O; NMeGly(cPent) = CN[C@H](C(=O)O)C1CCCC1; NMeNva(3-Et) = CCC(CC)[C@H](NC)C(=O)O; Hyp = O=C(O)[C@@H]1C[C@@H](O)CN1; NMeD = CN[C@@H](CC(=O)O)C(=O)O; NMeL = CN[C@@H](CC(C)C)C(=O)O; NMeNva = CCC[C@H](NC)C(=O)O; Morpholide = C1CN(*)CCO1; NMeA = CN[C@@H](C)C(=O)O; Ac5c = NC1(C(=O)O)CCCC1; Aze = O=C(O)[C@@H]1CCN1; Ac4c = NC1(C(=O)O)CCC1; Sar = CNCC(=O)O

Key:
[1] = biological target: GDP-bound NRAS wild-type protein (Homo sapiens, UniProt P01111); experiment: Binding to NRAS by surface plasmon resonance (SPR), KD and KD ratio to KRAS
Sequence of GDP-bound NRAS wild-type protein (P01111 whole entry): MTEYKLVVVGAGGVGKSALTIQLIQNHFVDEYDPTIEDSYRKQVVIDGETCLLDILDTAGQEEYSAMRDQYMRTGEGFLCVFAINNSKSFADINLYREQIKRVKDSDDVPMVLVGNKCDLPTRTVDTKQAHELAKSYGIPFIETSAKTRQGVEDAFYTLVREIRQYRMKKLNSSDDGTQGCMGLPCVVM
Method in brief: (§1)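 SPR, 30°C: Avi-biotin RAS·GDP captured via Biotin CAPture (~100–300 RU); running buffer HBS pH 7.4, 1 mM DTT, 10 mM MgCl2, 0.01% Tween 20, 10 µM GDP, 4% DMSO. Single-cycle kinetics, 100 µL/min, 75 s injections; 1:1 model → KD.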

HRAS wild-type protein = HRAS wild-type protein (Homo sapiens, UniProt P01112); experiment: Binding to HRAS by surface plasmon resonance (SPR), KD and KD ratio to KRAS
Sequence of HRAS wild-type protein (P01112 whole entry): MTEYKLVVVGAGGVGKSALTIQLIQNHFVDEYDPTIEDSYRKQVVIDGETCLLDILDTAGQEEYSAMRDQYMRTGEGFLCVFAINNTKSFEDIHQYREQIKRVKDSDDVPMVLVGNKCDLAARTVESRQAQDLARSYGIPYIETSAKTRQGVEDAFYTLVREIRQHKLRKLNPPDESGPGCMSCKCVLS
Method in brief: as §1

[2] = tested on: human lung cancer strain NCI-H441; format: cell-based
Method in brief: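 Proliferation was scored by […] measured after the reagent was added to cultures kept at 37°C in 5% carbon dioxide.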

[3] = ratio of KD for GDP-bound NRAS wild-type protein to KD for KRAS
[4] = ratio of KD for HRAS wild-type protein to KD for KRAS
[5] = ratio of the KD value with respect to GDP-bound NRAS wild-type protein to the KD value with respect to KRAS
[6] = ratio of the KD value with respect to HRAS wild-type protein to the KD value with respect to KRAS

Structure (SMILES) | NRAS /KRAS [1, 3] | HRAS /KRAS (HRAS wild-type protein; [4]) | IC50 [2] [nM] | NRAS /KRAS [1, 5] | HRAS /KRAS (HRAS wild-type protein; [6]) | IC50 ([2]; NCI-H441 cells, 4 days, CellTiter-Glo, read-out: NCl-H441 IC50) [nM]
CC[C@H](C)[C@@H]1NC(=O)[C@H](CC(C)C)N(C)C(=O)C[C@@H](C(=O)N2CCOCC2)N(C)C(=O)[C@H](C2CCCC2)N(C)C(=O)C2(CCCC2)NC(=O)[C@@H]2CCCN2C(=O)[C@H](CCc2ccc(C(F)(F)F)c(Cl)c2)NC(=O)CN(C)C(=O)[C@H](Cc2ccc(C)cc2)N(CCCOC)C(=O)CN(C)C(=O)CN(C)C1=O [PP0105] ([NMeL]I[Sar][Sar][X27][Sar][hPhe(3-Cl-4-CF3)]P[Ac5c][NMeGly(cPent)][NMeD]-Morpholide; lactam N-11) | B (a compound having 3 or more and less than 10 is denoted as B) | C (A compound having a KD ratio of 0.1 or more and less than 3 is denoted as C) | 8.3 |  |  | 
CC[C@H](C)[C@@H]1NC(=O)[C@H](CC(C)C)N(C)C(=O)C[C@@H](C(=O)N2CCOCC2)N(C)C(=O)[C@H](CC(F)(F)F)N(C)C(=O)C2(CCCC2)NC(=O)[C@@H]2CCCN2C(=O)[C@H](CCc2cc(F)c(C(F)(F)F)c(F)c2)NC(=O)CN(C)C(=O)[C@H](Cc2ccc(C(F)(F)F)cc2)N2CCCCC[C@@H](C2=O)N(C)C(=O)CN(C)C1=O [PP0506] |  |  | 705 | B (a compound having 3 or more and less than 10 is denoted as B) | B (a compound having 3 or more and less than 10 is denoted as B) | 
CC[C@@H]1C[C@H]2C(=O)NC3(CCCC3)C(=O)N(C)[C@@H](C3CCCC3)C(=O)N(C)[C@H](C(=O)N(C)CC)CC(=O)N(C)[C@@H](C)C(=O)N[C@@H]([C@@H](C)CC)C(=O)N(C)CC(=O)N(C)[C@H]3C/C=C\CCN(C3=O)[C@@H](Cc3ccc(C(F)(F)F)cc3)C(=O)N(C)CC(=O)N[C@@H](CCc3cc(F)c(C(F)(F)F)c(F)c3)C(=O)N2C1 [PP2271] |  |  | 60.6 | A (a compound having 10 or more and less than 20 is denoted as A) | A (a compound having 10 or more and less than 20 is denoted as A) | 
CCCN1C(=O)CN(C)C(=O)CN(C)C(=O)[C@H]([C@@H](C)CC)NC(=O)[C@@H]2CCCC=CC[C@@](C)(NC(=O)[C@@H]3C[C@@H](OCC)CN3C(=O)[C@H](CCc3cc(F)c(C(F)(F)F)c(F)c3)NC(=O)CN(C)C(=O)[C@@H]1Cc1ccc(C(F)(F)F)cc1)C(=O)N(C)[C@@H](C1CCCC1)C(=O)N(C)[C@H](C(=O)N1CCOCC1)CC(=O)N2C [PP0901] ([X36]I[Sar][Sar][NPrPhe(4-CF3)][Sar][hPhe(3,5-F2-4-CF3)][Hyp](Et)[dαMeAlg][NMeGly(cPent)][NMeD]-Morpholide; staple 1-9; lactam N-11) | B (a compound having 3 or more and less than 10 is denoted as B) | B (a compound having 3 or more and less than 10 is denoted as B) | 332 |  |  | 
CCC[C@H]1C(=O)N[C@@H]([C@@H](C)CC)C(=O)N(C)CC(=O)N(C)[C@H]2C/C=C\CCN(C2=O)[C@@H](Cc2ccc(C(F)(F)F)cc2)C(=O)N(C)CC(=O)N[C@@H](CCc2cc(Cl)c(C(F)F)c(Cl)c2)C(=O)N2C[C@H](OCC)C[C@H]2C(=O)NC2(CC(C)(C)C2)C(=O)N(C)[C@@H](C2CCCC2)C(=O)N(C)[C@H](C(=O)N(C)C)CC(=O)N1C [PP2865] | A (a compound having 10 or more and less than 20 is denoted as A) | A (a compound having 10 or more and less than 20 is denoted as A) |  |  |  | 37.7
CC[C@H](C)[C@@H]1NC(=O)[C@H](CC(C)C)N(C)C(=O)C[C@@H](C(=O)N2CCOCC2)N(C)C(=O)[C@H](C2CCCC2)N(C)C(=O)C2(CCCC2)NC(=O)[C@H](C)N(CC)C(=O)[C@H](CCc2cc(F)c(C(F)(F)F)c(F)c2)NC(=O)CN(C)C(=O)[C@H](Cc2ccc(C(F)(F)F)cc2)N2CCCCC[C@@H](C2=O)N(C)C(=O)CN(C)C1=O [PP0515] |  |  | 633 | B (a compound having 3 or more and less than 10 is denoted as B) | B (a compound having 3 or more and less than 10 is denoted as B) | 
CC[C@H](C)[C@@H]1NC(=O)[C@H](C)N(C)C(=O)C[C@@H](C(=O)N(C)C)N(C)C(=O)[C@H](C2CCCC2)N(C)C(=O)C2(CCC2)NC(=O)[C@@H]2CCCN2C(=O)[C@H](CCc2cc(F)c(C(F)(F)F)c(F)c2)NC(=O)CN(C)C(=O)[C@H](Cc2ccc(C(F)(F)F)cc2)N2CCCCC[C@@H](C2=O)N(C)C(=O)CN(C)C1=O [PP0470] |  |  | 51.9 | B (a compound having 3 or more and less than 10 is denoted as B) | B (a compound having 3 or more and less than 10 is denoted as B) | 
CCCN1C(=O)CN(C)C(=O)CN(C)C(=O)[C@H](CC(F)(F)F)NC(=O)[C@H](CC(C)C)N(C)C(=O)C[C@@H](C(=O)N2CCOCC2)N(C)C(=O)[C@H](C2CCCC2)N(C)C(=O)C2(CCCC2)NC(=O)[C@@H]2CCCN2C(=O)[C@H](CCc2ccc(C(F)(F)F)c(Cl)c2)NC(=O)CN(C)C(=O)[C@@H]1Cc1ccc(C(F)(F)F)cc1 [PP0249] ([NMeL][Abu(4,4,4-F3)][Sar][Sar][NPrPhe(4-CF3)][Sar][hPhe(3-Cl-4-CF3)]P[Ac5c][NMeGly(cPent)][NMeD]-Morpholide; lactam N-11) | B (a compound having 3 or more and less than 10 is denoted as B) | C (A compound having a KD ratio of 0.1 or more and less than 3 is denoted as C) | 25.5 |  |  | 
CCO[C@@H]1C[C@H]2C(=O)NC3(CCC3)C(=O)N(C)[C@@H](C3CCCC3)C(=O)N(C)[C@H](C(=O)N3CCOCC3)CC(=O)N(C)[C@@H](CC(C)C)C(=O)N[C@@H]([C@@H](C)CC)C(=O)N(C)CC(=O)N(C)[C@H]3CCCCCN(C3=O)[C@@H](Cc3ccc(F)cc3OC)C(=O)N(C)CC(=O)N[C@@H](CCc3cc(F)c(C(F)(F)F)c(F)c3)C(=O)N2C1 [PP0924] | B (a compound having 3 or more and less than 10 is denoted as B) | B (a compound having 3 or more and less than 10 is denoted as B) | 92 |  |  | 
CCO[C@@H]1C[C@H]2C(=O)NC3(CC(C)(C)C3)C(=O)N(C)[C@@H](C(CC)CC)C(=O)N(C)[C@H](C(=O)N(C)C)CC(=O)N(C)[C@@H](CC)C(=O)N[C@@H]([C@@H](C)CC)C(=O)N(C)CC(=O)N(C)[C@H]3C/C=C\CCN(C3=O)[C@@H](Cc3ccc(C(F)(F)F)cc3)C(=O)N(C)CC(=O)N[C@@H](CCc3cc(F)c(C(F)(F)F)c(F)c3)C(=O)N2C1 [PP2062] |  |  | 13.7 | AA (a compound having 20 or more is denoted as AA) | A (a compound having 10 or more and less than 20 is denoted as A) | 
CCO[C@@H]1C[C@H]2C(=O)NC3(CC(C)(C)C3)C(=O)N(C)[C@@H](C(CC)CC)C(=O)N(C)[C@H](C(=O)N(C)C)CC(=O)N(C)[C@@H](CC)C(=O)N[C@@H]([C@@H](C)CC)C(=O)N(C)CC(=O)N(C)[C@H]3C/C=C\CCN(C3=O)[C@@H](Cc3ccc(C)cc3)C(=O)N(C)CC(=O)N[C@@H](CCc3ccc(C(F)(F)F)c(Cl)c3)C(=O)N2C1 [PP2154] |  |  | 17.7 | A (a compound having 10 or more and less than 20 is denoted as A) | A (a compound having 10 or more and less than 20 is denoted as A) | 
CCO[C@@H]1C[C@H]2C(=O)NC3(CCC3)C(=O)N(C)[C@@H](C3CCCC3)C(=O)N(C)[C@H](C(=O)N(C)C)CC(=O)N(C)[C@@H](CC3CCCC3)C(=O)N[C@@H]([C@@H](C)CC)C(=O)N(C)CC(=O)N(C)[C@H]3C/C=C\CCN(C3=O)[C@@H](Cc3ccc(C)cc3)C(=O)N(C)CC(=O)N[C@@H](CCc3cc(Cl)c(C(F)(F)F)c(Cl)c3)C(=O)N2C1 [PP2679] | A (a compound having 10 or more and less than 20 is denoted as A) | A (a compound having 10 or more and less than 20 is denoted as A) | 17.7 |  |  | 
CC[C@H](C)[C@@H]1NC(=O)[C@H](CC(C)C)N(C)C(=O)C[C@@H](C(=O)N2CCOCC2)N(C)C(=O)[C@H](C2CCCC2)N(C)C(=O)C2(CCC2)NC(=O)[C@@H]2[C@@H](OC)CCN2C(=O)[C@H](CCc2cc(F)c(C(F)(F)F)c(F)c2)NC(=O)CN(C)C(=O)[C@H](Cc2ccc(C(F)(F)F)cc2)N2CCCCC[C@@H](C2=O)N(C)C(=O)CN(C)C1=O [PP1067] | B (a compound having 3 or more and less than 10 is denoted as B) | B (a compound having 3 or more and less than 10 is denoted as B) | 299 |  |  | 
CCC[C@H]1C(=O)N[C@@H]([C@@H](C)CC)C(=O)N(C)[C@@H](C)C(=O)N2CC[C@H]2C(=O)N(CCC)[C@@H](Cc2ccc(C(F)(F)F)cc2)C(=O)N(C)CC(=O)N[C@@H](CCc2ccc(C(F)(F)F)c(Cl)c2)C(=O)N2CCC[C@H]2C(=O)NC2(CCC2)C(=O)N(C)[C@@H](C(CC)CC)C(=O)N(C)[C@H](C(=O)N2CCOCC2)CC(=O)N1C [PP1959] ([NMeNva]I[NMeA][Aze][NPrPhe(4-CF3)][Sar][hPhe(3-Cl-4-CF3)]P[Ac4c][NMeNva(3-Et)][NMeD]-Morpholide; lactam N-11) |  |  | 14.7 | C (A compound having a KD ratio of 0.1 or more and less than 3 is denoted as C) | B (a compound having 3 or more and less than 10 is denoted as B) | 
CCC[C@H]1C(=O)N[C@@H](C2CCCCC2)C(=O)N(C)CC(=O)N(C)[C@H]2C/C=C\CCN(C2=O)[C@@H](Cc2ccc(C(F)(F)F)cc2)C(=O)N(C)CC(=O)N[C@@H](CCc2ccc(C(F)(F)F)c(Cl)c2)C(=O)N2C[C@H](OCC)C[C@H]2C(=O)NC2(CC(C)(C)C2)C(=O)N(C)[C@@H]([C@@H](C)CC)C(=O)N(C)[C@H](C(=O)N(C)C)CC(=O)N1C [PP3015] | AA (a compound having 20 or more is denoted as AA) | A (a compound having 10 or more and less than 20 is denoted as A) | 103 |  |  | 
